The subject of the assay is HCV genotype-1a variant with glutamine 30 changed to glutamate in the NS5A protein. The class given is cell-based. To be noted: test compound titrated with BMS-790052 fixed at 200 nM; genotype 1a Q30E replicon. In a few lines: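 Synergy was assessed by combining several fixed amounts of an NS5A-targeting compound with a titration of the second compound of interest.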
A general note: Replicon systems follow genome replication, usually without infectious particles.

Regarding `CC(C)(C)C(NC(=O)C1COCCN1CC(F)(F)F)c1nc(-c2ccc(-c3ccc(-c4c[nH]c(C(NC(=O)C5COCCN5CC(F)(F)F)C(C)(C)C)n4)cc3)cc2)c[nH]1` [Compound L-68], the “Fold-Synergistic 1a (Q30E)” value is given as more than 100 fold.

Turning to `O=C(c1cccc(Oc2ccccc2)c1)N1CCC[C@H]1c1ncc(-c2ccc(-c3ccc(-c4cnc([C@@H]5CCCN5C(=O)c5cccc(Oc6ccccc6)c5)[nH]4)cc3)cc2)[nH]1` [Compound S-116], the “Fold-Synergistic 1a (Q30E)” value is less than 10 fold.

With `CN(C)C(=O)C(=O)NC1(C(=O)N[C@H](c2nc(-c3ccc(-c4ccc(-c5c[nH]c([C@@H](NC(=O)C6(NC(=O)C(=O)N(C)C)CCCCC6)C(C)(C)C)n5)cc4)cc3)c[nH]2)C(C)(C)C)CCCCC1` [Compound W-268], the “Fold-Synergistic 1a (Q30E)” value is more than 100 fold.

Turning to `CC1(O)CC(C(=O)N[C@H](c2nc(-c3ccc(-c4ccc(-c5c[nH]c([C@@H](NC(=O)C6CC(C)(O)C6)C(C)(C)C)n5)cc4)cc3)c[nH]2)C(C)(C)C)C1` (single isomer, unassigned) [Compound W-170], the “Fold-Synergistic 1a (Q30E)” value is more than 100 fold.

With `CC(C)(C)C(=O)NC(c1nc(-c2ccc(-c3ccc(-c4c[nH]c(C(NC(=O)C(C)(C)C)C5(C(F)(F)F)CC5)n4)cc3)cc2)c[nH]1)C1(C(F)(F)F)CC1` (single isomer, unassigned) [Compound N-107B], the “Fold-Synergistic 1a (Q30E)” value is recorded as more than 10 fold.

For `CC1(O)CCC(C(=O)N[C@H](c2nc(-c3ccc(-c4ccc(-c5c[nH]c([C@@H](NC(=O)C6CCC(C)(O)CC6)C(C)(C)C)n5)cc4)cc3)c[nH]2)C(C)(C)C)CC1` (some centres unmarked) [Compound W-175], the “Fold-Synergistic 1a (Q30E)” value is more than 100 fold.

Take `CC(C)[C@H](NC(=O)CCCn1ccnc1)c1ncc(-c2ccc(-c3ccc(-c4cnc([C@@H](NC(=O)CCCn5ccnc5)C(C)C)[nH]4)cc3)cc2)[nH]1` [Compound S-58]: the “Fold-Synergistic 1a (Q30E)” value is less than 10 fold.

`CC(C)(C)OC(=O)N1CCCC1C(=O)NC(c1nc(-c2ccc(-c3ccc(-c4c[nH]c(C(NC(=O)C5CCCN5C(=O)OC(C)(C)C)C(C)(C)C)n4)cc3)cc2)c[nH]1)C(C)(C)C` (centres unmarked) [Compound W-87]: the “Fold-Synergistic 1a (Q30E)” value is given as more than 100 fold.

For `Cc1noc(C)c1C(=O)N[C@H](c1ncc(-c2ccc(-c3ccc(-c4cnc([C@@H](NC(=O)c5c(C)noc5C)C(C)C)[nH]4)cc3)cc2)[nH]1)C(C)C` [Compound S-96], the “Fold-Synergistic 1a (Q30E)” value is reported as more than 100 fold.

On to `CC1CC(C(=O)NC(c2nc(-c3ccc(-c4ccc(-c5c[nH]c(C(NC(=O)C6CC(C)CN6C(=O)OC(C)(C)C)C6(C)CC6)n5)cc4)cc3)c[nH]2)C2(C)CC2)N(C(=O)OC(C)(C)C)C1` (centres unmarked) [Compound W-71], for which the “Fold-Synergistic 1a (Q30E)” value is more than 100 fold.

In the case of `CC(C)(C)[C@H](NC(=O)C1(C2(O)CCC(F)(F)CC2)CC1)c1ncc(-c2ccc(C#Cc3ccc4nc([C@@H](NC(=O)C5(C6(O)CCC(F)(F)CC6)CC5)C(C)(C)C)[nH]c4c3)cc2)[nH]1` [Compound B48B], the “Fold-Synergistic 1a (Q30E)” value was more than 100 fold.

`CC(C)[C@H](NC(=O)[C@H](NC(=O)OCc1ccccc1)C(C)C)c1ncc(-c2ccc(-c3ccc(-c4cnc([C@@H](NC(=O)[C@H](NC(=O)OCc5ccccc5)C(C)C)C(C)C)[nH]4)cc3)cc2)[nH]1` [Compound S-245]: the “Fold-Synergistic 1a (Q30E)” value is more than 100 fold.

With `COCC(NC(=O)C(=O)N1CCC(F)(F)CC1)c1nc(-c2ccc(-c3ccc(-c4c[nH]c(C(COC)NC(=O)C(=O)N5CCC(F)(F)CC5)n4)cc3)cc2)c[nH]1` [Compound L-103], the “Fold-Synergistic 1a (Q30E)” value was more than 10 fold.

`COc1ccc(C(=O)N[C@H](c2nc(-c3ccc(-c4ccc(-c5c[nH]c([C@@H](NC(=O)c6ccc(OC)cc6)C(C)(C)C)n5)cc4)cc3)c[nH]2)C(C)(C)C)cc1` [Compound N-54]: the “Fold-Synergistic 1a (Q30E)” value is given as more than 100 fold.

As for `CC(C)[C@H](NC(=O)c1cc(Cl)cc(Cl)c1)c1ncc(-c2ccc(-c3ccc(-c4cnc([C@@H](NC(=O)c5cc(Cl)cc(Cl)c5)C(C)C)[nH]4)cc3)cc2)[nH]1` [Compound S-76], the “Fold-Synergistic 1a (Q30E)” value is reported as more than 100 fold.

Take `CC(C)(C)[C@H](NC(=O)C1CC(F)(F)C1)c1nc(-c2ccc(-c3ccc(-c4c[nH]c([C@@H](NC(=O)C5CC(F)(F)C5)C(C)(C)C)n4)cc3)cc2)c[nH]1` [Compound P-17]: the “Fold-Synergistic 1a (Q30E)” value is more than 100 fold.

On to `CC(C)[C@H](NC(=O)C(=O)C1(C)CCC1)c1ncc(-c2ccc(-c3ccc(-c4cnc([C@@H](NC(=O)C(=O)C5(C)CCC5)C(C)C)[nH]4)cc3)cc2)[nH]1` [Compound P-115], for which the “Fold-Synergistic 1a (Q30E)” value was more than 100 fold.

For `CC(C)[C@H](NC(=O)c1ccco1)c1ncc(-c2ccc(-c3ccc(-c4cnc([C@@H](NC(=O)c5ccco5)C(C)C)[nH]4)cc3)cc2)[nH]1` [Compound S-8], the “Fold-Synergistic 1a (Q30E)” value is more than 100 fold.

In the case of `CC(C)(C)[C@H](NC(=O)c1ccccc1O)c1nc(-c2ccc(-c3ccc(-c4c[nH]c([C@@H](NC(=O)c5ccccc5O)C(C)(C)C)n4)cc3)cc2)c[nH]1` [Compound Y-72], the “Fold-Synergistic 1a (Q30E)” value was more than 100 fold.

Regarding `CC1(C(NC(=O)C(C)(C)C(O)C2CC(F)(F)C2)c2nc(-c3ccc(-c4ccc(-c5c[nH]c(C(NC(=O)C(C)(C)C(O)C6CC(F)(F)C6)C6(C)CC6)n5)cc4)cc3)c[nH]2)CC1` (mixture of isomers) [Compound N-157], the “Fold-Synergistic 1a (Q30E)” value was more than 100 fold.

On to `CC(C)[C@H](NC(=O)C(C)(C)CF)c1ncc(-c2ccc(-c3ccc(-c4cnc([C@@H](NC(=O)C(C)(C)CF)C(C)C)[nH]4)cc3)cc2)[nH]1` [Compound P-72], for which the “Fold-Synergistic 1a (Q30E)” value is reported as more than 100 fold.

For `CC(C)[C@H](NC(=O)N(c1ccccc1)c1ccccc1)c1nc(-c2ccc(-c3ccc(-c4c[nH]c([C@@H](NC(=O)N(c5ccccc5)c5ccccc5)C(C)C)n4)cc3)cc2)c[nH]1` [Compound S-227], the “Fold-Synergistic 1a (Q30E)” value is reported as more than 100 fold.

For `C#CCOC(=O)N[C@H](c1ncc(-c2ccc(-c3ccc(-c4cnc([C@@H](NC(=O)OCC#C)C(C)C)[nH]4)cc3)cc2)[nH]1)C(C)C` [Compound S-212], the “Fold-Synergistic 1a (Q30E)” value is recorded as more than 10 fold.

`O=C(N1CCC(F)(F)CC1)N1CCC[C@H]1c1ncc(-c2ccc(-c3ccc(-c4cnc([C@@H]5CCCN5C(=O)N5CCC(F)(F)CC5)[nH]4)cc3)cc2)[nH]1` [Compound P-131]: the “Fold-Synergistic 1a (Q30E)” value is given as more than 100 fold.

As to `CC1(C)CCCC(C)(C(=O)NC(c2nc(-c3ccc(-c4ccc(-c5c[nH]c(C(NC(=O)C6(C)CCCC(C)(C)O6)C(C)(C)C)n5)cc4)cc3)c[nH]2)C(C)(C)C)O1` (mixture of isomers) [Compound W-163], the “Fold-Synergistic 1a (Q30E)” value is reported as more than 100 fold.

With `CC(C)CC(=O)NC1(c2ncc(-c3ccc(-c4ccc(-c5cnc(C6(NC(=O)CC(C)C)Cc7ccccc7C6)[nH]5)cc4)cc3)[nH]2)Cc2ccccc2C1.O=C(O)C(F)(F)F.O=C(O)C(F)(F)F` [Compound N-19], the “Fold-Synergistic 1a (Q30E)” value was less than 10 fold.

As to `CCN(CC)C(=O)C(=O)N[C@H](c1nc(-c2ccc(-c3ccc(-c4c[nH]c([C@@H](NC(=O)C(=O)N(CC)CC)C(C)(C)C)n4)cc3)cc2)c[nH]1)C(C)(C)C` [Compound W-33], the “Fold-Synergistic 1a (Q30E)” value is on record as more than 100 fold.

With `CC(C)[C@H](NC(=O)C1CC(F)(F)C1)c1ncc(-c2ccc3c(c2)Cc2cc(-c4cnc([C@@H](NC(=O)C5CC(F)(F)C5)C(C)C)[nH]4)ccc2-3)[nH]1.O=C(O)C(F)(F)F` [Compound N-71], the “Fold-Synergistic 1a (Q30E)” value is given as more than 100 fold.

For `CC(C)[C@H](NC(=O)C12CCC(C1)C(C)(C)C2O)c1nc(-c2ccc(-c3ccc(-c4c[nH]c([C@@H](NC(=O)C56CCC(C5)C(C)(C)C6O)C(C)C)n4)cc3)cc2)c[nH]1` (single isomer, unassigned) [Compound Y-114], the “Fold-Synergistic 1a (Q30E)” value is more than 100 fold.

On to `CC(C)(C)[C@H](NC(=O)C1(C(F)(F)F)CCCC1)c1nc(-c2ccc(-c3ccc(-c4c[nH]c([C@@H](NC(=O)C5(C(F)(F)F)CCCC5)C(C)(C)C)n4)cc3)cc2)c[nH]1` [Compound N-52], for which the “Fold-Synergistic 1a (Q30E)” value was more than 100 fold.

As for `CC(C)(C)[C@H](NC(=O)[C@@]1(C)CCC(F)(F)CO1)c1nc(-c2ccc(-c3cnc(-c4c[nH]c([C@@H](NC(=O)[C@@]5(C)CCC(F)(F)CO5)C(C)(C)C)n4)cn3)cc2)c[nH]1` [Compound N-130], the “Fold-Synergistic 1a (Q30E)” value was more than 100 fold.

On to `CC(C)[C@H](NC(=O)C(C)(C)C(O)C1CC(F)(F)C1)c1nc(-c2ccc(-c3ccc(-c4c[nH]c([C@@H](NC(=O)C(C)(C)C(O)C5CC(F)(F)C5)C(C)C)n4)cc3)cc2)c[nH]1` (single isomer, unassigned) [Compound N-145A], for which the “Fold-Synergistic 1a (Q30E)” value was more than 100 fold.

Consider `C=C1C[C@@H](C(=O)N[C@H](c2nc(-c3ccc(-c4ccc(-c5c[nH]c([C@@H](NC(=O)[C@@H]6CC(=C)CN6C(=O)OC(C)(C)C)C(C)C)n5)cc4)cc3)c[nH]2)C(C)C)N(C(=O)OC(C)(C)C)C1` [Compound W-89], for which the “Fold-Synergistic 1a (Q30E)” value is given as more than 100 fold.

In the case of `Cc1onc(-c2ccccc2)c1C(=O)N1CCC[C@H]1c1ncc(-c2ccc(-c3ccc(-c4cnc([C@@H]5CCCN5C(=O)c5c(-c6ccccc6)noc5C)[nH]4)cc3)cc2)[nH]1` [Compound S-118], the “Fold-Synergistic 1a (Q30E)” value is on record as less than 10 fold.

On to `CN1CCC[C@H]1C(=O)N[C@H](c1nc(-c2ccc(-c3ccc(-c4c[nH]c([C@@H](NC(=O)[C@@H]5CCCN5C)C(C)(C)C)n4)cc3)cc2)c[nH]1)C(C)(C)C` [Compound P-36], for which the “Fold-Synergistic 1a (Q30E)” value was more than 10 fold.

Consider `Cc1cccc(C(=O)N[C@H](c2ncc(-c3ccc(-c4ccc(-c5cnc([C@@H](NC(=O)c6cccc(C)c6)C(C)C)[nH]5)cc4)cc3)[nH]2)C(C)C)c1` [Compound S-80], for which the “Fold-Synergistic 1a (Q30E)” value is given as more than 100 fold.

Take `C[C@H]1CCN(C(=O)C(=O)N(C2CC2)C2CC2)C1c1nc(-c2ccc(-c3ccc(-c4c[nH]c(C5[C@@H](C)CCN5C(=O)C(=O)N(C5CC5)C5CC5)n4)cc3)cc2)c[nH]1` (some centres unmarked) [Compound W-244]: the “Fold-Synergistic 1a (Q30E)” value is reported as more than 100 fold.

Consider `CC1(OC(=O)N2CC(F)CC2C(=O)NC(c2nc(-c3ccc(-c4ccc(-c5c[nH]c(C(NC(=O)C6CC(F)CN6C(=O)OC6(C)CC6)C(C)(C)C)n5)cc4)cc3)c[nH]2)C(C)(C)C)CC1` (centres unmarked) [Compound W-119], for which the “Fold-Synergistic 1a (Q30E)” value was more than 100 fold.

Values taken from patent US20160158200A1, “Combinations of Hepatitis C Virus Inhibitors” (priority 2013, published 2016).
